Structures are written as SMILES. Where two headings read alike, the source gives them in different places.

The test has as its system HT-22 cells. Briefly: HT-22 Cell Neuroprotection Assay (glutamate-induced cell death, calcein AM viability). In kind it is cell-based, murine. The conditions noted are these: about 16 h exposure. As to the method:
Method: HT-22 Cell Neuroprotection Assay
HT-22 cells (immortalized hippocampal neurons of murine origin) were maintained in DMEM media (Life Technologies, Inc., Gaitherburg, Md.) supplemented with 10% charcoal-stripped FBS (HyClone Laboratories, Inc., Logan, Utah) and 20 μg/mL gentamycin, according to standard culture conditions.
Cells were plated at a density of 5,000 cells/well in clear-bottomed Nunc 96-well plates (Fisher Scientific, Orlando, Fla.) and allowed to incubate overnight. Steroids dissolved in DMSO were added at concentrations ranging from 0.01-10 μM and were co-administered with glutamate (10 mM or 20 mM). DMSO was used at concentrations of 0.1% vol/vol as a vehicle control and had no discernible effect on cell viability. After about 16 h of glutamate exposure, cells were rinsed with PBS, pH 7.4, and viability was assessed by the addition of 25 μM calcein AM (Molecular Probes, Inc., Eugene, Oreg.) in PBS for 15 min at room temperature. Fluorescence was determined (excitation 485 nm, emission 530 nm) using a fluorescence FL600 microplate reader (Biotek, Winooski, Vt.). Cells that were lysed by addition of methanol were used for blank readings. All data were normalized to % cell death, as calculated by (control value −insult value)/control value×100.

In the case of `C[C@]12CC[C@@H]3c4ccc(O)cc4CC[C@H]3[C@@H]1CCC2=O` [Estrone, estrone, reference compound], the EC50 (Mus musculus, co-administered with 10 mM glutamate, read-out: Steroid concentration needed to protect 50% of neurons killed by 10 mM Glutamate ED50) was 3.03 µM.

As to `C[C@@]12CC=C3c4ccc(O)cc4CC[C@@H]3[C@H]1CC[C@H]2O` [ZYC-12], the EC50 (co-administered with 10 mM glutamate, read-out: Steroid concentration needed to protect 50% of neurons killed by 10 mM Glutamate ED50) is 0.53 µM and the EC50 (co-administered with 20 mM glutamate, read-out: Steroid concentration needed to protect 50% of neurons killed by 20 mM Glutamate ED50) was 1.43 µM.

(Values after patent US20020132802A1, “Cytoprotective polycyclic compounds” (Washington Univeristy, priority 2000, published 2002).)
